Assay results published in ChEMBL document CHEMBL1201862, “PubChem BioAssay data set” (2004).
Activity calls are given as the source filed them.

Legend:
Streptococcus = experiment: GAS UMAA2166 growth inhibition – luminescence, BacTiterGlo, counter-screen for streptokinase expression inhibitor project, dose response (AID 1915); assay type: functional, organism-based;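 also: potency for reduction of bacterial viability or growth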
Aurora kinase B = Aurora kinase B (Homo sapiens, UniProt Q96GD4); assay type: functional
[1] = target: Cell division cycle 7-related protein kinase (Homo sapiens, UniProt O00311); assay type: functional;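 also: value obtained from a kinome-wide kinase panel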
[2] = target: Inhibitor of nuclear factor kappa-B kinase subunit epsilon (Homo sapiens, UniProt Q14164); experiment: Navigating the Kinome. Panel member name: IKBKE; assay type: functional
[3] = target: Serine/threonine-protein kinase 17A (Homo sapiens, UniProt Q9UEE5); assay type: functional
Misshapen-like kinase 1 = Misshapen-like kinase 1 (Homo sapiens, UniProt Q8N4C8); assay type: functional;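 also: kinome panel screen with MINK as the panel member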
[4] = target: cAMP-dependent protein kinase catalytic subunit PRKX (Homo sapiens, UniProt P51817); assay type: functional
[5] = target: cAMP-dependent protein kinase catalytic subunit alpha (Homo sapiens, UniProt P17612); assay type: functional
[6] = target: Mitogen-activated protein kinase 14 (Homo sapiens, UniProt Q16539); assay type: functional;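 also: part of a kinome-wide panel, MAPK14 entry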
[7] = target: Insulin-like growth factor 1 receptor (Homo sapiens, UniProt P08069); experiment: Navigating the Kinome. Panel member name: IGF1R; assay type: functional
[8] = target: Casein kinase I isoform alpha (Homo sapiens, UniProt P48729); assay type: functional
[9] = target: Serine/threonine-protein kinase 3 (Homo sapiens, UniProt Q13188); assay type: functional;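 also: measured as one member of a kinome-wide kinase panel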
[10] = target: Cyclin-dependent kinase 9 (Homo sapiens, UniProt P50750); assay type: functional;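 also: value from the CDK9 entry of a kinome-spanning kinase panel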
[11] = target: Tyrosine-protein kinase receptor TYRO3 (Homo sapiens, UniProt Q06418); assay type: functional;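 also: TYRO3 value obtained as one member of a kinome-wide profiling panel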
[12] = target: Dual specificity protein kinase CLK2 (Homo sapiens, UniProt P49760); assay type: functional
[13] = target: Tyrosine-protein kinase SYK (Homo sapiens, UniProt P43405); assay type: functional
[14] = target: Glycogen synthase kinase-3 beta (Homo sapiens, UniProt P49841); assay type: functional;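 also: value comes from a broad kinome profiling panel, with GSK3B as the panel member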
[15] = target: Macrophage colony-stimulating factor 1 receptor (Homo sapiens, UniProt P07333); assay type: functional;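 also: value comes from the Navigating the Kinome screening panel, CSF1R member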
[16] = target: Tyrosine-protein kinase Lck (Homo sapiens, UniProt P06239); assay type: functional;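 also: lck was assayed as one member of a kinase panel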
[17] = target: Fibroblast growth factor receptor 1 (Homo sapiens, UniProt P11362); assay type: functional
[18] = target: Calcium/calmodulin-dependent protein kinase type II subunit delta (Homo sapiens, UniProt Q13557); assay type: functional
[19] = target: Mitogen-activated protein kinase kinase kinase kinase 2 (Homo sapiens, UniProt Q12851); assay type: functional;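 also: measured as one member of a kinome-wide kinase panel, with MAP4K2 as the panel entry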
Aurora kinase A = target: T1, Aurora kinase A (Homo sapiens, UniProt O14965); assay type: functional;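 also: value from the Navigating the Kinome kinase panel profiling, panel entry STK6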
T1 sequence (O14965 whole entry): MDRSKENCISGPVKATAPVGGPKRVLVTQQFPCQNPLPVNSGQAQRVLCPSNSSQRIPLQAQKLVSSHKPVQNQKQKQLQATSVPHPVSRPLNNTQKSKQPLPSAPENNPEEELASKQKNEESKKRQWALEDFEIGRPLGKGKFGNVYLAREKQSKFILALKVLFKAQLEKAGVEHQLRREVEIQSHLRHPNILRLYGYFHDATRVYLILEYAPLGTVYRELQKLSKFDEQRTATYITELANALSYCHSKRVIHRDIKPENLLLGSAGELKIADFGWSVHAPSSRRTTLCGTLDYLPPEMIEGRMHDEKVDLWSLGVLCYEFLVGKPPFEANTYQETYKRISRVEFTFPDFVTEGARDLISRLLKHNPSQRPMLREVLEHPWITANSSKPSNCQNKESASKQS

[20] = target: Macrophage-stimulating protein receptor (Homo sapiens, UniProt Q04912); experiment: Navigating the Kinome. Panel member name: MST1R; assay type: functional
[21] = target: Maternal embryonic leucine zipper kinase (Homo sapiens, UniProt Q14680); assay type: functional
[22] = target: Mitogen-activated protein kinase 9 (Homo sapiens, UniProt P45984); assay type: functional;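 also: value from a kinome panel profiling assay, MAPK9 panel entry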
[23] = target: Tyrosine-protein kinase Fer (Homo sapiens, UniProt P16591); assay type: functional;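 also: FER tested as one member of a kinome panel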
[24] = target: Serine/threonine-protein kinase MRCK alpha (Homo sapiens, UniProt Q5VT25); assay type: functional

Chain of Dual specificity protein kinase CLK2 (P49760 whole entry): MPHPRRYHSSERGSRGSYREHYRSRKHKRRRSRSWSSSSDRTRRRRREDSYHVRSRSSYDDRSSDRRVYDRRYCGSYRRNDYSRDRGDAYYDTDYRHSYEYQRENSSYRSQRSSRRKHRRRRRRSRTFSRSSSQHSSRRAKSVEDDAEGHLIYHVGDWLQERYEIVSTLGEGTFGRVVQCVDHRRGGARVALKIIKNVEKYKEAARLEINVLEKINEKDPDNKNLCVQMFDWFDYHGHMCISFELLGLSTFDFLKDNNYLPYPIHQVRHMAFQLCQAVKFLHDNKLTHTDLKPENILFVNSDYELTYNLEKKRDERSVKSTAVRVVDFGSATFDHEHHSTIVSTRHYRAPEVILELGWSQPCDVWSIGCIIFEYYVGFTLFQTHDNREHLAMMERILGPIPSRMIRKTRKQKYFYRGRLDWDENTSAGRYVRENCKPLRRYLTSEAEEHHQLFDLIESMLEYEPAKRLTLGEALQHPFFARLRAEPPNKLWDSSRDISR
Chain of Fibroblast growth factor receptor 1 (P11362 whole entry): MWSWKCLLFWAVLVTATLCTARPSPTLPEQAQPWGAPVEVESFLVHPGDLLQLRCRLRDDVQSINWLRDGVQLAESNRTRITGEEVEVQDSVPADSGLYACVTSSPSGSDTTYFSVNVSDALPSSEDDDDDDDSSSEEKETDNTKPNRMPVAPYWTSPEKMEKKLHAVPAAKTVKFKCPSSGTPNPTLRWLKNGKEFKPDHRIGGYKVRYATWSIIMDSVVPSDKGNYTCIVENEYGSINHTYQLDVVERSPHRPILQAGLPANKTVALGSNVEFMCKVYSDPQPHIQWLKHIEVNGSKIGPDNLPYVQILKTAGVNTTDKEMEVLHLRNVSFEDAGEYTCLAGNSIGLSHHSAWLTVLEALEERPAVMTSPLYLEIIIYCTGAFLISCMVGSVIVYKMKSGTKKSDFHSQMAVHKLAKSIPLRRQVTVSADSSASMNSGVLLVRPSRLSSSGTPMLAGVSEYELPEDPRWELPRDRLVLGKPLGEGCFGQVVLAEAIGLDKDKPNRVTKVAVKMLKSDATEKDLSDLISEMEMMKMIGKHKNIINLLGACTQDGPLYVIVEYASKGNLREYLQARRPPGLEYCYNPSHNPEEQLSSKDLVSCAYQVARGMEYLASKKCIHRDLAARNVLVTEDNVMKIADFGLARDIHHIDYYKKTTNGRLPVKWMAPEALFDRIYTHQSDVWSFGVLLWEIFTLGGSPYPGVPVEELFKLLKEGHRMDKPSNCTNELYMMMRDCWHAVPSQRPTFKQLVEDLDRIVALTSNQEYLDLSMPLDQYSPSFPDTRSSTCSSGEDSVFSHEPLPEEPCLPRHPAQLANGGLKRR
Chain of Tyrosine-protein kinase receptor TYRO3 (Q06418 whole entry): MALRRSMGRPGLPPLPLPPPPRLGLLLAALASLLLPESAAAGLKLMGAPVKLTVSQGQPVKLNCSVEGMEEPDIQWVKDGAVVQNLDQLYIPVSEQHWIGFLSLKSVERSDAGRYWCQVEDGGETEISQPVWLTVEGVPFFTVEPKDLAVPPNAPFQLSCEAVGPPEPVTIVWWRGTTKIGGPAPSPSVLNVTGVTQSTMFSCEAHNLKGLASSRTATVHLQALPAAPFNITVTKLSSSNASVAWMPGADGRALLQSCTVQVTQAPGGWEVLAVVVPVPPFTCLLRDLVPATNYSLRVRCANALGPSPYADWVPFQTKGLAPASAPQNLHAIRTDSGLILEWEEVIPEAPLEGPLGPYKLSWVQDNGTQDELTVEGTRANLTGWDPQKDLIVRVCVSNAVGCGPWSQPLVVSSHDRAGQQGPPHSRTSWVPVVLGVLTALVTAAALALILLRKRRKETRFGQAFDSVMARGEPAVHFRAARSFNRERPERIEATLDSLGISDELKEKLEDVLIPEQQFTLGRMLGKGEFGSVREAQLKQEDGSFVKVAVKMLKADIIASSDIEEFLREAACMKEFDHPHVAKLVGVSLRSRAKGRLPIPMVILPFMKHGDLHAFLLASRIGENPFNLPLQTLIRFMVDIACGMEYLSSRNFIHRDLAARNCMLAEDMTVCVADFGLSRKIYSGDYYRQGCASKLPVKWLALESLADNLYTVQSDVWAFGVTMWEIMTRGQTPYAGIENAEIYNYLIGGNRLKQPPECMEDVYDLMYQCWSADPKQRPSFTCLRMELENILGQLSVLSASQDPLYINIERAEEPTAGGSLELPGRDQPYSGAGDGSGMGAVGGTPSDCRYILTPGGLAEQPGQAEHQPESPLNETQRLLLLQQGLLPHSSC
Chain of Mitogen-activated protein kinase kinase kinase kinase 2 (Q12851 whole entry): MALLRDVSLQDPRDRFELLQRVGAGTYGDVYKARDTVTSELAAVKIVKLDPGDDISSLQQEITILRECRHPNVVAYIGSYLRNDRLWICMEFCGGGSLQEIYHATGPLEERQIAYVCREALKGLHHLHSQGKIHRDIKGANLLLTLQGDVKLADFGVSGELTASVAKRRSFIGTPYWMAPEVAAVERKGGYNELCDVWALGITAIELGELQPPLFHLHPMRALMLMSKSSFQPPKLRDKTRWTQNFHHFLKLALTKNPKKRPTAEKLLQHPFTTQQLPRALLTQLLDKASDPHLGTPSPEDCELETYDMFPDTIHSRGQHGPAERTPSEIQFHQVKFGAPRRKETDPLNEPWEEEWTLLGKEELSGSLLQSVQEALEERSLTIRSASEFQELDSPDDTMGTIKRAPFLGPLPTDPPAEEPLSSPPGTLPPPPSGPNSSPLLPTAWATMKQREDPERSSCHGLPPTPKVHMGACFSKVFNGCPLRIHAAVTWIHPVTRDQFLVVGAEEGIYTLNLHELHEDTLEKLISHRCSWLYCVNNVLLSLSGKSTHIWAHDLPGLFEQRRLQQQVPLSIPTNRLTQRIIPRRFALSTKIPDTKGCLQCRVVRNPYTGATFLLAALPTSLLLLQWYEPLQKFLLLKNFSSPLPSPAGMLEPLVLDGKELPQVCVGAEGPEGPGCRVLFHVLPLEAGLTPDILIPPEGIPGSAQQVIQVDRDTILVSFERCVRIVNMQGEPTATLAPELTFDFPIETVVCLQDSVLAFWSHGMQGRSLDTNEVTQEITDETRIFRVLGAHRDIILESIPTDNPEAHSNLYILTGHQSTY
Chain of Mitogen-activated protein kinase 9 (P45984 whole entry): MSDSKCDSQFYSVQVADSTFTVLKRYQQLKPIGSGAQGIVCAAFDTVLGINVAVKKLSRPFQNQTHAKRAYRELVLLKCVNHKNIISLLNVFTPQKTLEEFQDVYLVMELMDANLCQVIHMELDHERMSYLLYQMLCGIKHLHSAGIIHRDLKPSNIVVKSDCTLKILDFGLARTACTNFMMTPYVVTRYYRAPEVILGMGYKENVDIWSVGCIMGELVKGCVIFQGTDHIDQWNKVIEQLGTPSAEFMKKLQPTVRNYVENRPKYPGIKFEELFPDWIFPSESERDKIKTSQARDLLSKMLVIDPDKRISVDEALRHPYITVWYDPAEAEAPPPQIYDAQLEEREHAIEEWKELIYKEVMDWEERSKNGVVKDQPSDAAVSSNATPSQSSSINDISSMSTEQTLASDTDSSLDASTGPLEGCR
Chain of Serine/threonine-protein kinase 3 (Q13188 whole entry): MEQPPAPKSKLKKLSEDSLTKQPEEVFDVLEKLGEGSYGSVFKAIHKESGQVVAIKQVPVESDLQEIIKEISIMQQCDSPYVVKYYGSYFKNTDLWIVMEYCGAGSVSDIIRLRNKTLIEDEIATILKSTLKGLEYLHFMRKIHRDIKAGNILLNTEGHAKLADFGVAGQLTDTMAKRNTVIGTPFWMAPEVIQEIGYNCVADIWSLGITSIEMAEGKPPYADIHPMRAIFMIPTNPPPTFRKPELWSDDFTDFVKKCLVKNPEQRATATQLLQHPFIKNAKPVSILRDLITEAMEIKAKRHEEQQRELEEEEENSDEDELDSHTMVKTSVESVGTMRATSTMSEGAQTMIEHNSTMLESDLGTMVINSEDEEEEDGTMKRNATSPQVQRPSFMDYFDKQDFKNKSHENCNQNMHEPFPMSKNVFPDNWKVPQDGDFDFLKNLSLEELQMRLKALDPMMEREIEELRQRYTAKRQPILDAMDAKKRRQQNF
Chain of Inhibitor of nuclear factor kappa-B kinase subunit epsilon (Q14164 whole entry): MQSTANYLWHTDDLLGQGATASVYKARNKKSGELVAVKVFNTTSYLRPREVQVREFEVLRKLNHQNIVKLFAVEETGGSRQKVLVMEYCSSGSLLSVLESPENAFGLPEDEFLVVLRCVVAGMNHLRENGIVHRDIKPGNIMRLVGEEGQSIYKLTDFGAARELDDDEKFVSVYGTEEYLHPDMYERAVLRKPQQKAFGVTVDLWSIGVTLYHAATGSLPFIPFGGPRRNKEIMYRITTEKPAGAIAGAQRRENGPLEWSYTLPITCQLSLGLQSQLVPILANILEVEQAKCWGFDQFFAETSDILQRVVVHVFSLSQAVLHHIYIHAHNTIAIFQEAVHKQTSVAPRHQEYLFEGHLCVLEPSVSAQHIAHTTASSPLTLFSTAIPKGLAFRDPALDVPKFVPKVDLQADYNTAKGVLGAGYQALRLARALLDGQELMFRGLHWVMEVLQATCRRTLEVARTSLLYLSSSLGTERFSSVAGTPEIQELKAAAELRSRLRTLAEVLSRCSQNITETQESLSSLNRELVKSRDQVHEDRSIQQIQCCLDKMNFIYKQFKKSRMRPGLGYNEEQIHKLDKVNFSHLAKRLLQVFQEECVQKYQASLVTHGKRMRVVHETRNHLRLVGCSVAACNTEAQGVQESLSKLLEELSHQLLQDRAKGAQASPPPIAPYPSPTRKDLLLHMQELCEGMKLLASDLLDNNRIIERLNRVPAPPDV
Chain of Aurora kinase B (Q96GD4 whole entry): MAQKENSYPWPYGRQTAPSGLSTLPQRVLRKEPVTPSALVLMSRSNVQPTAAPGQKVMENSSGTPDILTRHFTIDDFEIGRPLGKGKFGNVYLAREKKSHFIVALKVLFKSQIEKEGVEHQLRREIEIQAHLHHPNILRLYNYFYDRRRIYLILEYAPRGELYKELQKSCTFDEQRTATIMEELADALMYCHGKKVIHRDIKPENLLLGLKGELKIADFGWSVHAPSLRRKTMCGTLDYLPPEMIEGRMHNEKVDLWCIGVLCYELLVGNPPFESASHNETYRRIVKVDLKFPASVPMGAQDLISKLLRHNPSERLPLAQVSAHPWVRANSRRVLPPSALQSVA

Ki (Aurora kinase B) | Ki [1] | Ki [2] | Ki [3] | Ki (Misshapen-like kinase 1) | Ki [4] | Ki [5] | Ki [6] | Ki [7] | Ki [8] | Ki [9] | Ki [10] | Ki [11] | Ki [12] | Ki [13] | Ki [14] | Ki [15] | Ki [16] | Ki [17] | Ki [18] | SMILES | other results
 |  |  |  |  |  |  |  |  |  |  |  |  |  |  |  |  |  |  |  | Cc1cc(NC(c2ccc(Cl)cc2)c2ccc3cccnc3c2O)no1 (stereo not drawn) | EC50 (Streptococcus): 15 µM (active)
> 3.98 µM (inactive) | 3.16 nM (active) | 1.26 µM (active) | 200 nM (active) | > 2.51 µM (inactive) | 316 nM (active) | > 2.51 µM (inactive) | > 3.98 µM (inactive) | > 2.51 µM (inactive) | 1.58 µM (active) | > 3.16 µM (inactive) | 398 nM (active) | > 3.16 µM (inactive) | 0.126 µM (active) | > 1.58 µM (inactive) | 2 nM (active) | > 2.51 µM (inactive) | > 6.31 µM (inactive) | > 3.98 µM (inactive) | > 3.16 µM (inactive) | O=C(Nc1n[nH]c2ccc(-c3cn(Cc4ccccc4)nn3)cc12)c1cc(F)ccc1F | Ki [19]: > 2.51 µM (inactive); Ki (Aurora kinase A): > 1.58 µM (inactive); Ki [20]: 2.51 µM (active); Ki [21]: 398 nM (active); Ki [22]: 1 µM (active)
> 1.26 µM (inactive) | 100 nM (active) | > 3.16 µM (inactive) | > 3980 nM (inactive) | > 7.94 µM (inactive) | > 1580 nM (inactive) | > 3.98 µM (inactive) | > 3.98 µM (inactive) | > 1.26 µM (inactive) | > 5.01 µM (inactive) | > 7.94 µM (inactive) | > 1580 nM (inactive) | > 1.58 µM (inactive) | > 6.31 µM (inactive) | 0.316 µM (active) | > 2000 nM (inactive) | > 1.58 µM (inactive) |  | > 3.98 µM (inactive) | 0.251 µM (active) | CS(=O)(=O)N(Cc1ccc2[nH]c(=O)c3cccn3c2c1)C1CC1 | Ki [23]: > 1.58 µM (inactive); Ki [24]: 2 µM (active); Ki [19]: > 2 µM (inactive); Ki (Aurora kinase A): > 0.794 µM (inactive); Ki [20]: > 3.98 µM (inactive); Ki [21]: 200 nM (active); Ki [22]: > 3.98 µM (inactive)
 |  |  |  |  |  |  |  |  |  |  |  |  |  |  |  |  | > 6.31 µM (inactive) |  |  | CS(=O)(=O)Nc1ccc(Nc2ccc3[nH]nc(N)c3c2)cc1 | 
